“And” between values parts separate entries of the source, which are not always exact repeats. Identical values can stand only once. Toxic doses and inconclusive results are not listed.

The assay has as its system L1210 leukemia ip in BDF1 mice, survival T/C. The experiment in a line: NCI In Vivo Anticancer Drug Screen. Data for tumor model L1210 Leukemia (intraperitoneal) in B6D2F1 (BDF1) mice. The following applies: endpoint: mean survival time, higher = longer survival. The method, boiled down: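 Transplantable tumor model; survival measured in treated vs vehicle control mice. Value = treated/control.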

Setting [1] is: dose: 100.0 mg/kg/injection, schedule: Q04DX003 (ip), vehicle: Klucel (hydroxypropylcellulose) (HPC).
Setting [2] is: dose: 200.0 mg/kg/injection, schedule: Q04DX003 (ip), vehicle: Klucel (hydroxypropylcellulose) (HPC).
[3] abbreviates: dose: 400.0 mg/kg/injection, schedule: Q04DX003 (ip), vehicle: Klucel (hydroxypropylcellulose) (HPC).
Where [4] appears, read: dose: 50.0 mg/kg/injection, schedule: Q01DX009 (ip), vehicle: saline.
Where [5] appears, read: dose: 100.0 mg/kg/injection, schedule: Q01DX009 (ip), vehicle: saline.
Setting [6] is: dose: 200.0 mg/kg/injection, schedule: Q01DX009 (ip), vehicle: saline.
[7] abbreviates: dose: 100.0 mg/kg/injection, schedule: Q01DX001 (ip), vehicle: saline.
The mark [8] stands for this setting: dose: 200.0 mg/kg/injection, schedule: Q01DX001 (ip), vehicle: saline.
The mark [9] stands for this setting: dose: 25.0 mg/kg/injection, schedule: Q01DX001 (ip), vehicle: saline.
Where [10] appears, read: dose: 50.0 mg/kg/injection, schedule: Q01DX001 (ip), vehicle: saline.
[11] abbreviates: dose: 50.0 mg/kg/injection, schedule: Q04DX003 (ip), vehicle: saline.
Where [12] appears, read: dose: 100.0 mg/kg/injection, schedule: Q04DX003 (ip), vehicle: saline.
Setting [13] is: dose: 400.0 mg/kg/injection, schedule: Q01DX001 (ip), vehicle: saline.
Setting [14] is: dose: 25.0 mg/kg/injection, schedule: Q01DX009 (ip), vehicle: saline.
[15] abbreviates: dose: 100.0 mg/kg/injection, schedule: Q01DX001 (ip), vehicle: saline with Tween-80.

With `COc1ccc(COC(=O)Oc2ccc(OC)cc2)cc1`, the T/C under setting [1] is 102 % of control, the T/C under setting [2] was 98 % of control and the T/C under setting [3] was 112 % of control.

In the case of `O=C1NC2(CCCCC2)C(=O)N1CCN(CCO)CCO`, the T/C under setting [4] was 106 % of control; the T/C under setting [5] was 109 % of control; the T/C under setting [6] was 93 % of control; the T/C (dose: 400.0 mg/kg/injection, schedule: Q01DX009 (ip), vehicle: saline) is 91 % of control.

Take `O=C(NCCCCCCCCCNC(=O)Nc1ccc(C2=NCCCN2)cc1)Nc1ccc(C2=NCCCN2)cc1`: the T/C by setting is: (dose: 3.75 mg/kg/injection, schedule: Q01DX Z (ip), vehicle: carboxymethylcellulose (CMC)) 91 % of control; (dose: 7.5 mg/kg/injection, schedule: Q01DX Z (ip), vehicle: carboxymethylcellulose (CMC)) 98 % of control; (dose: 15.0 mg/kg/injection, schedule: Q01DX Z (ip), vehicle: carboxymethylcellulose (CMC)) 122 % of control.

As for `O=C(c1ccccc1)C1C(c2ccccc2)N1C(=O)c1ccc([N+](=O)[O-])cc1` (stereo not given), the T/C is, setting by setting: (dose: 75.0 mg/kg/injection, schedule: Q01DX001 (ip), vehicle: saline with Tween-80) 96 % of control; (dose: 150.0 mg/kg/injection, schedule: Q01DX001 (ip), vehicle: saline with Tween-80) 86 % of control; (dose: 300.0 mg/kg/injection, schedule: Q01DX001 (ip), vehicle: saline with Tween-80) 91 % of control.

`CNC(=S)N/N=C/C(=N\NC(=S)NC)C(O)C(O)C(O)C(O)CO` (stereo not given): the T/C reads like this: under setting [4], 100 % of control; under setting [7], 100 % of control; under setting [5], 91 % of control; under setting [8], 97 % of control; under setting [6], 100 % of control.

As for `COC1=NS(=O)(=O)C=C(c2ccccc2)O1`, where the note is “dose: 300.0 mg/kg/injection, schedule: Q04DX002 (ip), vehicle: Klucel (hydroxypropylcellulose) (HPC)”, the T/C was 100 % of control.

For the molecule `O=C(O)CN1C(=O)CSC1=S`, the T/C (dose: 100.0 mg/kg/injection, schedule: Q01DX009 (ip), vehicle: saline with Tween-80) is 655 % of control; the T/C (dose: 200.0 mg/kg/injection, schedule: Q01DX009 (ip), vehicle: saline with Tween-80) is 91 % of control; the T/C (dose: 400.0 mg/kg/injection, schedule: Q01DX009 (ip), vehicle: saline with Tween-80) was 89 % of control.

As for `FC(F)c1nc2nc(Cl)c(Cl)nc2[nH]1`, the T/C by setting is: (dose: 25.0 mg/kg/injection, schedule: Q01DX009 (ip), vehicle: saline with Tween-80) 100 % of control; (dose: 25.0 mg/kg/injection, schedule: Q04DX003 (ip), vehicle: saline with Tween-80) 101 % of control; (dose: 50.0 mg/kg/injection, schedule: Q01DX009 (ip), vehicle: saline with Tween-80) 105 % of control; (dose: 50.0 mg/kg/injection, schedule: Q04DX003 (ip), vehicle: saline with Tween-80) 97 % of control; (dose: 100.0 mg/kg/injection, schedule: Q04DX003 (ip), vehicle: saline with Tween-80) 102 % of control and 106 % of control.

Turning to `Cc1cc(C)c(C(=O)CC(=O)c2cccnc2)c(C)c1`, the T/C by setting is: under setting [9], 102 % of control; under setting [10], 101 % of control and 104 % of control; under setting [11], 97 % of control; under setting [7], 102 % of control and 103 % of control; under setting [12], 97 % of control; under setting [8], 97 % of control and 98 % of control. The T/C runs as follows: (dose: 200.0 mg/kg/injection, schedule: Q04DX003 (ip), vehicle: saline) 98 % of control; under setting [13], 103 % of control.

Regarding `CCOC(=O)c1cnc(SC)nc1NCCO`, the T/C is 97 % of control under setting [1], 95 % of control under setting [2] and 97 % of control under setting [3].

Take `CCCCCCCC(=O)NOS(=O)(=O)O`: the T/C under setting [9] is 101 % of control; the T/C under setting [14] was 91 % of control; the T/C (dose: 25.0 mg/kg/injection, schedule: Q04DX003 (ip), vehicle: saline) is 100 % of control; the T/C under setting [10] is 97 % of control; the T/C under setting [4] is 88 % of control; the T/C under setting [11] was 95 % of control. Moreover, under setting [12], the T/C is 95 % of control.

Consider `O=C(O)/C=C\Cl`, for which the T/C under setting [14] was 104 % of control; the T/C under setting [4] was 98 % of control; the T/C under setting [5] was 96 % of control; the T/C (dose: 100.0 mg/kg/injection, schedule: Q04DX002 (ip), vehicle: saline) is 100 % of control and 94 % of control; the T/C (dose: 200.0 mg/kg/injection, schedule: Q04DX002 (ip), vehicle: saline) is 93 % of control and 105 % of control; the T/C (dose: 400.0 mg/kg/injection, schedule: Q04DX002 (ip), vehicle: saline) is 102 % of control.

For the molecule `Nc1nc(=S)c2n[nH]nc2[nH]1`, under setting [15], the T/C is 94 % of control.

On to `C=C(C)C1CCC2(C=O)CCC3(C)C(CCC4C5(C)CCC(OC6CCCCO6)C(C)(C)C5CCC43C)C12` (stereo not given), for which the T/C is 90 % of control (dose: 25.0 mg/kg/injection, schedule: Q04DX002 (ip), vehicle: saline with Tween-80) and 90 % of control (dose: 100.0 mg/kg/injection, schedule: Q04DX002 (ip), vehicle: saline with Tween-80).

Turning to `CC(C)NCC(C#N)C1CCCCC1` (stereo not given), the T/C reads like this: under setting [15], 97 % of control; (dose: 200.0 mg/kg/injection, schedule: Q01DX001 (ip), vehicle: saline with Tween-80) 93 % of control; (dose: 400.0 mg/kg/injection, schedule: Q01DX001 (ip), vehicle: saline with Tween-80) 97 % of control.

As for `c1ccc2nc(CCC3CCCCN3)ccc2c1` (stereo not given), the T/C (dose: 333.0 mg/kg/injection, schedule: Q01DX Z (ip), vehicle: methylcellulose (MC)) is 101 % of control.

With `COC(=O)c1ccc(C(=O)O)cc1[N+](=O)[O-]`, the T/C is, setting by setting: (dose: 100.0 mg/kg/injection, schedule: Q01DX009 (ip), vehicle: Klucel (hydroxypropylcellulose) (HPC)) 102 % of control; (dose: 200.0 mg/kg/injection, schedule: Q01DX009 (ip), vehicle: Klucel (hydroxypropylcellulose) (HPC)) 102 % of control; (dose: 400.0 mg/kg/injection, schedule: Q01DX009 (ip), vehicle: Klucel (hydroxypropylcellulose) (HPC)) 90 % of control.

As to `CN(C)Cc1ccccc1COC(=O)c1ccc(Cl)cc1`, the T/C is 102 % of control (dose: 75.0 mg/kg/injection, schedule: Q04DX002 (ip), vehicle: saline); 94 % of control (dose: 150.0 mg/kg/injection, schedule: Q04DX002 (ip), vehicle: saline); 96 % of control (dose: 300.0 mg/kg/injection, schedule: Q04DX002 (ip), vehicle: saline).

Consider `O=C(O)CCCCCCCCCCN1C(=O)CCC1=O`, for which the T/C is, setting by setting: (dose: 100.0 mg/kg/injection, schedule: Q04DX003 (ip), vehicle: carboxymethylcellulose (CMC)) 98 % of control; (dose: 200.0 mg/kg/injection, schedule: Q04DX003 (ip), vehicle: carboxymethylcellulose (CMC)) 92 % of control; (dose: 400.0 mg/kg/injection, schedule: Q04DX003 (ip), vehicle: carboxymethylcellulose (CMC)) 104 % of control.

Take `Nc1cccc(Br)n1`: the T/C runs as follows: (dose: 37.5 mg/kg/injection, schedule: Q04DX002 (ip), vehicle: saline with Tween-80) 88 % of control; (dose: 75.0 mg/kg/injection, schedule: Q04DX002 (ip), vehicle: saline with Tween-80) 91 % of control; (dose: 150.0 mg/kg/injection, schedule: Q04DX002 (ip), vehicle: saline with Tween-80) 104 % of control.

For `CC(Cc1ccccc1)n1c(-c2ccccc2)c[n+]2ccccc12` (stereo not given), the T/C (dose: 1.17 mg/kg/injection, schedule: Q01DX001 (ip), vehicle: other) is 101 % of control; the T/C (dose: 2.34 mg/kg/injection, schedule: Q01DX001 (ip), vehicle: other) was 102 % of control; the T/C (dose: 4.69 mg/kg/injection, schedule: Q01DX001 (ip), vehicle: other) is 102 % of control.

On to `O=C(NCc1ccncc1)Nc1ccccc1`, for which the T/C is, setting by setting: (dose: 100.0 mg/kg/injection, schedule: Q04DX002 (ip), vehicle: Klucel (hydroxypropylcellulose) (HPC)) 103 % of control; (dose: 200.0 mg/kg/injection, schedule: Q04DX002 (ip), vehicle: Klucel (hydroxypropylcellulose) (HPC)) 103 % of control; (dose: 400.0 mg/kg/injection, schedule: Q04DX002 (ip), vehicle: Klucel (hydroxypropylcellulose) (HPC)) 106 % of control.

As for `CCOC(=O)c1ccc(C)[n+]([O-])c1`, the T/C by setting is: under setting [10], 96 % of control; under setting [7], 98 % of control; under setting [8], 100 % of control; under setting [13], 93 % of control.
